In US20060014206A1, “Assay methods for state-dependent calcium channel agonists/antagonists” (priority 2002, published 2006):
pEC50: −log10 of the molar value.

Molecular target: T1, L-type calcium channel, the α1C subunit (Homo sapiens, UniProt Q13936)
T1 construct: expressed in transfected cells
Assay: FLIPR assay of K+-stimulated calcium influx in C1-6-37-3 cells (HEK 293 stably transfected with L-type α1C channel and Kir 2.3)
Assay type: cell-based
Conditions: fluo-3 loaded cells, increasing potassium concentration (FIG. 4)
Protocol: The cell line used in this embodiment has a stably transfected L-type calcium channel, the α1C subunit. It also was transfected with the Kir 2.3 inward rectifier K channel, which allows for control of cell membrane potential through alteration of extracellular [K^+]o. Preincubation of the cells for 10 min in 30 mM [K^+]o partially depolarizes the cells.
Specifically exemplified herein is an assay to determine state-dependent drug-calcium channel interactions using a cell line that co-expresses a potassium channel (Kir2.3) that determines the resting membrane potential of the cells as a function of the external potassium ion concentration ([K]o) and a voltage gated calcium channel. Co-expressed in these cells is the L-type voltage gated calcium channel complex (alpha1C, alpha2-delta, beta2a). Potassium is used in a two step manner in this assay. First it is used to set the resting membrane potential (Vm) during antagonist incubation. […] This calcium influx is detected using a calcium sensitive dye (eg Fluo-3, Fluo4, Fura2, etc.). If the calcium influx is diminished by exposure to antagonists, this will be detected when compared to the control condition.
Hek 293 cells were stably transfected with the alpha 1C subunit of the L-type Calcium ion channel and Kir 2.3 inward K^+ rectifying channel (C1-6-37-3 cells). Calcium influx into the cells was measured in a FLIPR™ (Molecular Devices, CA). […]

T1 sequence (Q13936 whole entry): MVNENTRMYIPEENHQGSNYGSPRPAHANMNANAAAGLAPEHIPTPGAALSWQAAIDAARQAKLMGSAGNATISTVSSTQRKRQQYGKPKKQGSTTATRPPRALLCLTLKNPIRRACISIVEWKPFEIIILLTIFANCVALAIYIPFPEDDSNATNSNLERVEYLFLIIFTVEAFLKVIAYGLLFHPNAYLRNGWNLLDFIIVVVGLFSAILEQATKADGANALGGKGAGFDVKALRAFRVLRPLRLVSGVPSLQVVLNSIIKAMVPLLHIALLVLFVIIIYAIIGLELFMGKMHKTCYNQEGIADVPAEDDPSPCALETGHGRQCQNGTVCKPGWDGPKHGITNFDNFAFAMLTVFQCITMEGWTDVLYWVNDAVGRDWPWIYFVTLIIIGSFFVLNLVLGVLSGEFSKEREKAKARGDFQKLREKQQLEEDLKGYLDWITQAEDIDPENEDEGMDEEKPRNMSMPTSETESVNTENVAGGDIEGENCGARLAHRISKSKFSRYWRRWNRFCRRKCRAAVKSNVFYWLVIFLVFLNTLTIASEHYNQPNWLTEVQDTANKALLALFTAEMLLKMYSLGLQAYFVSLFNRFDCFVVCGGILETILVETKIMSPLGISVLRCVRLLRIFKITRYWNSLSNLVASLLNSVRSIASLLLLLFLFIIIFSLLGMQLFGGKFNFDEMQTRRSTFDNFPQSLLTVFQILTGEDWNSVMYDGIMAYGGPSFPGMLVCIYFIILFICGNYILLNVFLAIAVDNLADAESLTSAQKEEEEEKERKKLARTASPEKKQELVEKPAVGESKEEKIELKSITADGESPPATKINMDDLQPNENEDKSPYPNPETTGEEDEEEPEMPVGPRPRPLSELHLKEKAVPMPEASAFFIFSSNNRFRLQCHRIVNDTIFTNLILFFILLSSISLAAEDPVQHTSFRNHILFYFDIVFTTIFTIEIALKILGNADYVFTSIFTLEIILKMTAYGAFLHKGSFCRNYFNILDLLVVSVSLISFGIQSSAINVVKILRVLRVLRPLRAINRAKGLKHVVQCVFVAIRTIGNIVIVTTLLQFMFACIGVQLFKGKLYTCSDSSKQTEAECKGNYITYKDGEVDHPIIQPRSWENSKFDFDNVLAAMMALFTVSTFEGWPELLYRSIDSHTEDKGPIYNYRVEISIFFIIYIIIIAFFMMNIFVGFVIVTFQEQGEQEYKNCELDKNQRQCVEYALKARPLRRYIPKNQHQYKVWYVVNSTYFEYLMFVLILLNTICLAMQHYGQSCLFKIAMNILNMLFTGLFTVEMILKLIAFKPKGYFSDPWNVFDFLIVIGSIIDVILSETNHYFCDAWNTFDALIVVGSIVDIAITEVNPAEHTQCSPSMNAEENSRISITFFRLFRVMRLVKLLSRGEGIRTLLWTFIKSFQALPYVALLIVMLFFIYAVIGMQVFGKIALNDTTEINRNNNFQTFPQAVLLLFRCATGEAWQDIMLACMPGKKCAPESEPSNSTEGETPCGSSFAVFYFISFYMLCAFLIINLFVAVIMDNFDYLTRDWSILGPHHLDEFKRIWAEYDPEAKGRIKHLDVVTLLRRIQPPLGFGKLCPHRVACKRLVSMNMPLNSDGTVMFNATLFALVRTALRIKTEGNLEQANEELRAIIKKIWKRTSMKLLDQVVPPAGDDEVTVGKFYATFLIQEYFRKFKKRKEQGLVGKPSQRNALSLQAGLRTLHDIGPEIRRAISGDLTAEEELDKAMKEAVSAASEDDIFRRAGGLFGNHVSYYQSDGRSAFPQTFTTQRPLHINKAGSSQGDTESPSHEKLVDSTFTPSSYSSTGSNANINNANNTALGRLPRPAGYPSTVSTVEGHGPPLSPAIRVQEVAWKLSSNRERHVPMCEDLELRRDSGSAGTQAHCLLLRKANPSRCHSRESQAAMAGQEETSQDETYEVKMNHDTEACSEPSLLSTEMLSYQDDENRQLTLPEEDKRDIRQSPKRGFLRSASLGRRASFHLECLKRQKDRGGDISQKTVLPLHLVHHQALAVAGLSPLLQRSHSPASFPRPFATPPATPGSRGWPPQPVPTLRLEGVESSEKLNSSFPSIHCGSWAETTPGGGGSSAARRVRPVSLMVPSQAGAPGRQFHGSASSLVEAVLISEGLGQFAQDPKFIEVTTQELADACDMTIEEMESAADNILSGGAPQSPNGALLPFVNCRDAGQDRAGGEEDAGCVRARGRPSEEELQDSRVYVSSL
T1 sequence (P54289 25-946 partner limits assumed): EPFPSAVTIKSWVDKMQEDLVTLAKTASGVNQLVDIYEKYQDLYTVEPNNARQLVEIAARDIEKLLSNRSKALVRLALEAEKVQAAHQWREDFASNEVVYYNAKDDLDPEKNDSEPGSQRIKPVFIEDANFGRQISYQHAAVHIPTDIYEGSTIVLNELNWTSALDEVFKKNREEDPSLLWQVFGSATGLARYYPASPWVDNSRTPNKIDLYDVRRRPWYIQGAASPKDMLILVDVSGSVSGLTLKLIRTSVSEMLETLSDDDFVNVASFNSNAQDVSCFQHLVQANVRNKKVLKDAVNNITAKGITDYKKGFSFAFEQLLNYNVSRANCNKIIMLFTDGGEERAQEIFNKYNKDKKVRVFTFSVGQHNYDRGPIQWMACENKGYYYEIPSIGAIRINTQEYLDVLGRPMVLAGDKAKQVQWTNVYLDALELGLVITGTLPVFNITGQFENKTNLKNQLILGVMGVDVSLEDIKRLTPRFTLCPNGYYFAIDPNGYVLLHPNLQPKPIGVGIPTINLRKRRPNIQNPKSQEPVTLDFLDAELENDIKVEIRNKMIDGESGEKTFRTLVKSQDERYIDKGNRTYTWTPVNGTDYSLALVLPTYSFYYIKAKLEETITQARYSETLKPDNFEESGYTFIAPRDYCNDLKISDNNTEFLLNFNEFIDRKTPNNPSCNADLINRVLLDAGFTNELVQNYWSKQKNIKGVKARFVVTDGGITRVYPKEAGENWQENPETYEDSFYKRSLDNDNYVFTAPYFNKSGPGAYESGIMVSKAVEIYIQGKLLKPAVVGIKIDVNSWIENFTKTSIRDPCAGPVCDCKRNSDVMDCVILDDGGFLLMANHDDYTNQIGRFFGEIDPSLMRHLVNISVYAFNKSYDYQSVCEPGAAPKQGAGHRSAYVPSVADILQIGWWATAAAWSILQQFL
T1 sequence (P54289 947-1103 partner limits assumed): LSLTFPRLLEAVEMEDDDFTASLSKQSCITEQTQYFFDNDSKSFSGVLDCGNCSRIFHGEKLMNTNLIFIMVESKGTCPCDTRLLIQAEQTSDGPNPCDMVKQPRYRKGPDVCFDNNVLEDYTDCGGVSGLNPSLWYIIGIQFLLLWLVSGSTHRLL
T1 sequence (Q08289 whole entry partner): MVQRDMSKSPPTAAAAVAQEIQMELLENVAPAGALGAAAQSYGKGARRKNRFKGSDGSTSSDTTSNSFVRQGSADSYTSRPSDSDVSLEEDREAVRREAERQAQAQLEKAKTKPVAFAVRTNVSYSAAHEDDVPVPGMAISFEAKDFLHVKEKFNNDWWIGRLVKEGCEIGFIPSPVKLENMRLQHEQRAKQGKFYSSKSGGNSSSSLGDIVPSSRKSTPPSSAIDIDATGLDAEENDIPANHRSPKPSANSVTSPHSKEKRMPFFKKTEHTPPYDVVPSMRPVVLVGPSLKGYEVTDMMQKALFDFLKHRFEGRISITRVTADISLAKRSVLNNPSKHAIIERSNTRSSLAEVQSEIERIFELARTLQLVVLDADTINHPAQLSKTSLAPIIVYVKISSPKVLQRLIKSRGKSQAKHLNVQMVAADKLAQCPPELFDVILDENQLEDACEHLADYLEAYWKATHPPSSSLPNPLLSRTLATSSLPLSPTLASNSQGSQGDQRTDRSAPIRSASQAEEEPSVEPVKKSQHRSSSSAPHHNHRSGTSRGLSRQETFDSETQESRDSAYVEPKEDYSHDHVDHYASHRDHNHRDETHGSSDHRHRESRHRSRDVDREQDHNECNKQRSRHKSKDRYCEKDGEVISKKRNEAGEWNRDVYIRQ

- pEC50: 1.96
Structure (SMILES): [K+] [K^+]
